Among the test systems are HCT-15; HL-60; OVCAR-3; A549; NCI-H460; SF-539; SK-MEL-5; 786-0; KM12; COLO 205; OVCAR-8; NCI-H226; UO-31; SNB-19; SF-268; OVCAR-5; A498; OVCAR-4.
Holding throughout (experiment): NCI anticancer screen, dose series, 48 h

Structures are written as SMILES.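 The compound was tested at five concentrations on cells cultured in 96-well plates, with a 48-hour exposure period. GI50 marks 50% less growth.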 Activity calls are given as the source filed them. No stated cut-off is given here; in the data, active = GI50 up to about 1.1 µM and inactive = higher.

As to `O=C(Nc1cc(Cl)ccc1Cl)c1cc2ccccc2oc1=O`, the GI50 in the experiment on HCT-15 is > 100 µM; with HL-60 it was > 100 µM (inactive); in the experiment with OVCAR-3, 77.6 µM (inactive); in the experiment on A549, > 100 µM (inactive); in the experiment with NCI-H460 it was 53.2 µM (inactive); with SF-539, > 100 µM (inactive). Further, the GI50 is > 100 µM (inactive) with SK-MEL-5; 51.8 µM (inactive) with 786-0; > 100 µM (inactive) in the experiment with KM12; > 100 µM (inactive) in the experiment on COLO 205; 88.3 µM (inactive) in the experiment with OVCAR-8.

For `NC1CC=C(COC(=O)C(O)(c2ccccc2)C2CC2)CC1` (configuration not stated), the GI50 in the experiment with NCI-H226 is > 100 µM (inactive); in the experiment with HCT-15, > 100 µM; in the experiment with UO-31, > 100 µM (inactive); in the experiment on OVCAR-3 it was > 100 µM (inactive); in the experiment with A549, > 100 µM (inactive); with SF-539, > 100 µM (inactive). Further, the GI50 in the experiment on SNB-19, in the experiment with SK-MEL-5, in the experiment on SF-268, in the experiment with OVCAR-5, with 786-0 and in the experiment on KM12 was > 100 µM (inactive) throughout. Further, the GI50 in the experiment on COLO 205 and in the experiment with OVCAR-8 was > 100 µM (inactive) throughout.

With `CC(C)(C)/N=C1/CC(C)(C)c2ccccc2/C(=N\c2ccccc2)S1`, the GI50 was 47.3 µM (inactive) in the experiment on NCI-H226; 37.2 µM in the experiment with HCT-15; 31.8 µM (inactive) with UO-31; 43 µM (inactive) in the experiment on A498; 12.2 µM (inactive) in the experiment with HL-60; 33.1 µM (inactive) in the experiment with OVCAR-3. In addition, the GI50 was 36.4 µM (inactive) in the experiment with A549; 30.1 µM (inactive) with NCI-H460; 60.4 µM (inactive) with SF-539; 36.2 µM (inactive) in the experiment on SNB-19; 24.6 µM (inactive) in the experiment with SK-MEL-5; 28.2 µM (inactive) with SF-268. The GI50 in the experiment on OVCAR-5 is 37.9 µM (inactive); in the experiment with 786-0 it was 39.4 µM (inactive); with KM12 it was 26.8 µM (inactive); in the experiment on COLO 205, 23.3 µM (inactive); with OVCAR-8, 41.8 µM (inactive).

Take `COC(=O)C1=CC(=O)[C@@H]2CCCC[C@H]12`: the GI50 in the experiment on NCI-H226 was > 100 µM (inactive); in the experiment with HCT-15, > 100 µM; with UO-31, > 100 µM (inactive); in the experiment with HL-60, > 100 µM (inactive); in the experiment on OVCAR-3 it was > 100 µM (inactive); with A549, > 100 µM (inactive). Besides, the GI50 in the experiment on NCI-H460, in the experiment with SF-539, with SNB-19, in the experiment with SF-268, with OVCAR-4 and in the experiment with 786-0 was > 100 µM (inactive) in each case. Besides, the GI50 with KM12, in the experiment with COLO 205 and in the experiment on OVCAR-8 was > 100 µM (inactive) throughout.

Turning to `N#CCCC(C#N)(C#N)CCC#N`, the GI50 with NCI-H226 was > 100 µM (inactive); with HCT-15, > 100 µM; with UO-31, > 100 µM (inactive); with HL-60, > 100 µM (inactive); with OVCAR-3, > 100 µM (inactive); in the experiment with A549, > 100 µM (inactive). In addition, the GI50 in the experiment on NCI-H460, in the experiment with SF-539, in the experiment on SNB-19, in the experiment with SK-MEL-5, in the experiment on SF-268 and in the experiment with 786-0 was > 100 µM (inactive) in each case. Further, the GI50 with KM12, in the experiment on COLO 205 and in the experiment on OVCAR-8 was > 100 µM (inactive) throughout.

The values above are taken from ChEMBL document CHEMBL1201862, “PubChem BioAssay data set” (2004).
